No end group written: not given here.
How the values were obtained:
[1] = test system: FeCl3-induced arterial thrombosis (carotid artery); assay: FeCl3-induced arterial model of thrombosis in rats (time to occlusion); type: in vivo; details: rat, single-bolus injection
Method: Male Sprague-Dawley rats (250-310 g; Charles River Laboratories, St-Constant, QC, Canada) were acclimated for at least 3 days prior to the start of the study. Animals were housed in microisolator cages and were kept on a 12-hr light/dark cycle with constant temperature and humidity. Food and water were provided ad libitum. Various anti-thrombotic agents and peptides of this invention were dissolved in saline (0.9% sodium chloride) prior to use.
The FeCl3-induced arterial model of thrombosis in rats was also generated as described by Wang and Xu (Wang 2005) with some modifications (Couture 2011). Briefly, rats were anesthetized with a 2.5% isoflurane/oxygen mixture and placed on a heat source (35-37° C.). An incision was made over the right carotid artery, and a segment of the artery was exposed via blunt dissection. A Doppler flow probe (Model MA1PRB, Transonic System Inc., Ithaca, N.Y., USA) connected to a perivascular flow module (TS420, Transonic System Inc., Ithaca, N.Y., USA) was then attached to the carotid artery to monitor blood flow. Data were collected and analyzed using the MP100 Biopac™ Systems (Biopac Systems, Santa Barbara, Calif., USA), and the AcgKnowledge™ software (Biopac Systems, Santa Barbara, Calif., USA), respectively. Baseline blood flow was recorded for a minimum of 15 minutes until readings stabilized. Aquasonic 100 gel (Parker Laboratories, Inc., Fairfield, N.J., USA) was added to help conductivity and any fluid accumulating at the site of surgery was removed during data sampling without touching the probe. […] One minute after drug administration, a piece of filter paper (Gel Blot Paper, GB003, Whatman, Piscataway, N.J., USA; 7 mm diameter) saturated with 20% FeCl3 (EMD Chemicals Inc., Gibbstown, N.J., USA) was placed on the exposed surface of the carotid artery and incubated for 3.5 minutes. During the application of FeCl3, the neck region was covered with aluminum foil. At the end of the incubation period, the filter paper was removed and the exposed carotid was covered with a saline-soaked gauze. Time to occlusion was defined as the time from the application of FeCl3 until blood flow decreased to zero. […] Preparing and processing each animal took approximately 1 hr and 7 animals were treated each day. Control animals were always included when the other treatments were being administered. For this reason, the number of animals in the control group is higher than that of the treated-groups.
Statistical analysis was conducted using GraphPad™ Prism (GraphPad Software Inc., San Diego Calif., USA). Data were analyzed using one-way ANOVA with post-hoc Bonferroni correction for multiple comparisons. The relationship between thrombus weight and thrombus volume was determined by linear regression. […]

[2] = target: T1, rat-tail collagen type I (Rattus norvegicus, UniProt P02454+P02466); assay: Peptide-collagen binding by reduction of collagen fibril alignment (deuterium coupling constant); details: collagen gelation under magnetic field in presence of peptide
T1 construct: purchased BD Bioscience; host or cells: rat tail (tissue-derived)
Source text: High-resolution proton NMR spectroscopy is used to illustrate the behavior of the linker peptides […] (SEQ ID NO: 2 or gb1), […] (SEQ ID NO: 3 or trpzip6), […] (SEQ ID NO: 4 or trpzip5) and […] (SEQ ID NO: 5 or trpzip4) in aqueous solutions. The peptides were synthesized using standard Fmoc chemistry and purified by reverse-phase HPLC. Their identity was confirmed by mass-spectroscopy and NMR spectroscopy. For NMR studies, a volume of (400-X) μL of a peptide dissolved in pure water was mixed with 50 μL of a 10×PBS (phosphate-buffered saline) supplemented by sodium phosphate to a final concentration of 50 mM and with 50 μL of deuterated water (D2O) to form the reference sample (where X=0) and with a certain volume (X μL) of rat-tail collagen type I (at 3.6 to 4 mg/ml in 0.02 N acetic acid from BD Bioscience), (where X is adjusted to achieve the desired final concentration of collagen), with 50 μL of the 10× modified PBS and with 50 μL of deuterated water (D2O) to form the peptide-collagen complex. The pH value of the reference peptide samples was adjusted to match the pH of the final peptide-collagen complex in order to facilitate NMR spectral comparison.
The peptide-collagen solutions were subjected to gelation under magnetic field guidance (see Example 7) followed by the measurement of fibril alignment (Ma 2008) as a semi-quantitative indication of peptide-collagen binding. […]

[3] = test system: human coagulation proteome; assay: Synthetic coagulation proteome assay (thrombin generation); type: biochemical; details: 37° C.
Method: This assay is carried out using an established protocol as described previously (Brummel-Ziedens 2008). Briefly, a pro-cofactor solution containing re-lipidated tissue factor (10 pM; molar ratio PCPS:TF=5000) was incubated with 4 μM PCPS in HBS (20 mM HEPES and 150 mM NaCl at pH 7.4) and 2 mM CaCl2 for 8 min at 37° C. Factor V (40 nM) and Factor VIII (1.4 nM) were then added to the mixture prior to initiation of the reaction to activate the protease zymogens in the blood coagulation cascade. The activation reaction was initiated by addition of the pro-cofactor solution to a zymogen solution containing prothrombin (2.8 μM), Factor VII (20 nM), Factor Vila (0.2 nM), FX (340 nM), Factor IX (180 nM), Factor XI (60 nM), TFPI (5 nM), antithrombin III (6.8 μM) […]
At selected time points after initiation of the reaction, 10 μL aliquots were withdrawn from the reaction mixture and quenched in 20 mM EDTA in HBS (pH 7.4) containing 0.2 mM Spectrozyme™ TH and assayed immediately for the proteolytic activity of thrombin. The hydrolysis of Spectrozyme™ TH was monitored by the change in absorbance at 405 nm using a SpectraMax™ plate reader (Molecular Devices Corp., Menlo Park, Calif., USA). Concentration of thrombin generated by the reaction was calculated from a standard curve prepared by serial dilutions of known concentrations of α-thrombin using the fibrinogen clotting assay (DiMaio 1990). Fibrinogen solution was freshly prepared by dissolving about 0.5% (w/v) fibrinogen in 50 mM Tris-HCl, 100 mM NaCl, 0.1% PEG-8000, pH 7.6 and filtering the resulting solution through a hydrophilic membrane of 0.45 μm polyvinylidene fluoride (PVDF) with low protein binding. The concentration of fibrinogen after filtration was determined by using the extinction coefficient of 15.0 for 1% fibrinogen at 280 nm. […] Thrombin-induced clotting of fibrinogen was followed at 25° C. by measuring the optical absorbance at 420 nm. The clotting time was obtained from extrapolation of the slope at the point of inflection to the zero absorbance baseline. […]

[4] = test system: pooled human plasma; assay: Prothrombin time (PT, thromboplastin) clotting assay; type: biochemical; details: for IC50: 37° C., concentration that prolongs clotting time by 50%
Method: (§1) Prothrombin (clotting) time (PT) or activated partial thromboplastin (clotting) time (APTT) assays were carried out at certain concentrations of the thrombin inhibitors of the present invention using pooled human plasma with addition of thromboplastin or activated partial thromboplastin to initiate clotting. The assays employed kits from Biopool International (Ventura, Calif., USA) or from Pacific Haemostasis (Middletown, Va., USA) using the procedures supplied by the manufacturer. Briefly, the stock solution of an inhibitor (with the concentration determined using UV-based OD determination, see Gill 1989) is diluted in a buffer of 20 mM HEPES and 150 mM NaCl at pH 7.4 (HBS) to a final volume of 50 μL, to which is added the reconstituted normal plasma (Product #CMS-176172 from Fisher Scientific) in an equal volume. This solution mixture is equilibrated at 37° C. for 2 minutes before 50 μL of the APTT-10XL solution (CMS-022927) is introduced forcibly to ensure proper mixing. This new mixture was incubated at 37° C. for another 5 minutes, which is followed by the addition of 50 μL of 0.02 M […] (Fisher Scientific CMS-022925) pre-warmed at 37° C. For the prothrombin time (PT) assay, an inhibitor is diluted in HBS to a final volume of 25 μL, to which is added the reconstituted control plasma (Fisher Scientific CMS-176172) in an equal volume. This solution mixture is equilibrated at 37° C. for 5 minutes before addition of 100 μL of the thromboplastin solution (CMS-176099) pre-warmed at 37° C. For APTT assays, inhibitory activities of the peptides are expressed as concentrations needed to achieve 50% of the maximum delay in clotting time (MCT50) as compared to the absence of thrombin inhibitors (Maraganore 1989). For PT assays, inhibitory activities are measured as the concentrations of the peptides that prolong the clotting time by 50% (IC50) of that of the normal control plasma (Maraganore 1990). PT and APTT assays were also carried out using slightly modified experimental procedures. Thus, 50 μL of a control plasma (Pacific Hemostasis) solution was added to 100 μL HBS (20 mM HEPES and 150 mM NaCl at pH 7.4) containing varied concentrations of the peptides of this invention. After incubation at 37° C. for 5 min, the mixture was added to 50 μL of the thromboplastin or activated partial thromboplastin reagent. Clotting of the plasma was monitored by change in absorbance at 420 nm using a SpectraMax™ plate reader.

[5] = test system: pooled human plasma; assay: Activated partial thromboplastin time (APTT) clotting assay; type: biochemical; details: 37° C.; concentration for 50% of maximum delay in clotting time; read-out: MTC50 (APTT)
Method: as §1

T1 sequence (P02454 152-1207): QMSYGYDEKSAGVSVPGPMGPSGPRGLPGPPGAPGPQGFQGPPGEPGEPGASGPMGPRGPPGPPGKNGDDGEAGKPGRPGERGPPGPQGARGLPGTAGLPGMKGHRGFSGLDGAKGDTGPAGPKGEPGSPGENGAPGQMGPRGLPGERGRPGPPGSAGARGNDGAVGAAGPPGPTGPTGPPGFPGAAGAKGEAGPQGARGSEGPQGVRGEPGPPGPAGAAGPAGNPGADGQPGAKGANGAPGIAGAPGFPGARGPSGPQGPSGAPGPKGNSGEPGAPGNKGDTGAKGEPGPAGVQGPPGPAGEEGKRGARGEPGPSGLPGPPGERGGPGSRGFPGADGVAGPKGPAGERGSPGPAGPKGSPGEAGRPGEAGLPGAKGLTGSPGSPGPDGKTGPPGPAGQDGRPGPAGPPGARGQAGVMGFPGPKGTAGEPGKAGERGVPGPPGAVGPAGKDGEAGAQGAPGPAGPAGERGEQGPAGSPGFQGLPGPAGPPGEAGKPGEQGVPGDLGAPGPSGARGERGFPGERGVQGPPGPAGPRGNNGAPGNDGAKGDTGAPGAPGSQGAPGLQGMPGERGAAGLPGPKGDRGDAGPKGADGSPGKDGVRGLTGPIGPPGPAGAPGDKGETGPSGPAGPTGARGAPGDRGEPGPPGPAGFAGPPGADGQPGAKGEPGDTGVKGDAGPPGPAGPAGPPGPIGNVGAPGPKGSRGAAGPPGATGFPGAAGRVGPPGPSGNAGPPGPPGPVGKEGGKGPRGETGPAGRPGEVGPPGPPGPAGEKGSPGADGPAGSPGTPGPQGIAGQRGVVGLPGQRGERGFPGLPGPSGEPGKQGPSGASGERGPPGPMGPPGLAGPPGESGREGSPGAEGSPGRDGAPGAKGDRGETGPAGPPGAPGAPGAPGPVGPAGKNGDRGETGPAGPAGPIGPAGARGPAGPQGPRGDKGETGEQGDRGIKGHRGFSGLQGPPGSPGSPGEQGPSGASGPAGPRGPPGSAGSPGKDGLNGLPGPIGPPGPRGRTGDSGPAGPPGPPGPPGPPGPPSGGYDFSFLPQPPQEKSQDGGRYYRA
T1 sequence (P02466 86-1125): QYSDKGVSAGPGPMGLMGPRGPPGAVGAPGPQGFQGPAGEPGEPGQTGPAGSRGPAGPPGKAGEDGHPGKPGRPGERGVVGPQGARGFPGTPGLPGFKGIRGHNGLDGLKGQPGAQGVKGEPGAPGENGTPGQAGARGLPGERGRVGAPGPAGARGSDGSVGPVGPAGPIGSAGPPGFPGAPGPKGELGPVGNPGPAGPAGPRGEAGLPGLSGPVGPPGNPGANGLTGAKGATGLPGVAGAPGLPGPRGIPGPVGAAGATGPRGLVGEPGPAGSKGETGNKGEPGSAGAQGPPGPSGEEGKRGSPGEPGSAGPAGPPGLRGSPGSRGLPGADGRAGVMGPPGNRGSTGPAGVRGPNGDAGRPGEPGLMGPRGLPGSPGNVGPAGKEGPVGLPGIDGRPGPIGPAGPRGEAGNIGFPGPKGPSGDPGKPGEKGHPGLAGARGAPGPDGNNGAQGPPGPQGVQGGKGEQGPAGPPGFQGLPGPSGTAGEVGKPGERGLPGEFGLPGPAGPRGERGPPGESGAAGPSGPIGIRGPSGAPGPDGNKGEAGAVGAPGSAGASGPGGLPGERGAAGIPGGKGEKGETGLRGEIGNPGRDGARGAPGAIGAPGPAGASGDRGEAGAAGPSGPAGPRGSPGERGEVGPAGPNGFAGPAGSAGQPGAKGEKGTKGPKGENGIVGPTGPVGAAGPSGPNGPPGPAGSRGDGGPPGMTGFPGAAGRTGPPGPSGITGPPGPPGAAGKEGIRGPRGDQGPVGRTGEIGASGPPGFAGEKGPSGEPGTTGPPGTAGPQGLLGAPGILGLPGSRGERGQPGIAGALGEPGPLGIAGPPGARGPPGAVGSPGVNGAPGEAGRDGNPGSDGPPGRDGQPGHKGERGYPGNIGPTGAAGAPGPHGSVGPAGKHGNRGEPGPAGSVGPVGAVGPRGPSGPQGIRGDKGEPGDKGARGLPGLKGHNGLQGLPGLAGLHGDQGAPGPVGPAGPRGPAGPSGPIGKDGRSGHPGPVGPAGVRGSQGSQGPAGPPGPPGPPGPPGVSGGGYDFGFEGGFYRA

Row | Compound | reduction of arterial occlusion [1] | IC50 [4] [µM] | further results
1 | CC1CNc2c(cccc2S(=O)(=O)N[C@@H](CCCNC(=N)N)C(=O)N2CC[C@@H](C)C[C@@H]2C(=O)O)C1 (some centres unmarked) [Argatroban, reference compound] | consistently better efficacy |  | 
2 | GEWTWDDATKTWTWTE (not fully specified (C-terminus)) [trpzip4] |  |  | reduction of deuterium coupling constant (degree of collagen fibril alignment) [2]: more than 1.0 Hz
3 | CC[C@H](C)[C@H](N)C(=O)N[C@@H](CCCNC(=N)N)C(=O)N[C@@H](Cc1ccccc1)C(=O)N[C@H](C(=O)N[C@@H](CC(=O)O)C(=O)NCC(=O)N[C@@H](CCC(=O)O)C(=O)NCC(=O)N[C@H](C(=O)NCC(=O)N[C@@H](CO)C(=O)NCC(=O)N[C@@H](CO)C(=O)NCC(=O)N[C@@H](CO)C(=O)NCC(=O)N[C@@H](CO)C(=O)NCC(=O)N[C@@H](CC(=O)O)C(=O)N[C@@H](Cc1ccccc1)C(=O)N[C@@H](CCC(=O)O)C(=O)N[C@@H](CCC(=O)O)C(=O)N[C@H](C(=O)N1CCC[C@H]1C(=O)N[C@@H](CCC(=O)O)C(=O)N[C@@H](CCC(=O)O)C(=O)N[C@@H](Cc1ccc(O)cc1)C(=O)N[C@@H](CC(C)C)C(=O)N[C@@H](CCC(N)=O)C(=O)O)[C@@H](C)CC)[C@@H](C)O)[C@@H](C)O [MH2-GS] |  | 0.2 | delay of thrombin burst / onset of thrombin generation [3]: clear dose-dependency for the delay of thrombin burst; anticoagulant effect in PT versus APTT assays ([4]; in words): more potent effect in delaying the prothrombin time as compared to APTT; EC50 [5]: 0.9 µM
4 | Bivalirudin [reference compound] | consistently better efficacy | 0.093 | 
